Test system: human leukocytes (LTB4 production, calcium ionophore stimulated)
Test: Human Leukocyte LTB4 Inhibition Assay
Format: cell-based
Details: Leukocyte, LTB4 by ELISA, read-out: LTB4 HLA IC50
Experimental: Human Leukocyte LTB4 Inhibition Assay
A non-limiting example of a human leukocyte inhibition assay is as follows; Blood was drawn from consenting human volunteers into heparanized tubes and 3% dextran 0.9% saline ⅓ rd volume added. After sedimentation of red blood cells a hypotonic lysis of remaining red blood cells was performed and leukocytes sedimented at 1200 rpm. The pellet was resuspended at 1.25×10^5 cells/ml and aliquoted into wells containing 1 μL 100% DMSO (vehicle) or 2.5 μL drug in 100% DMSO. Samples were incubated for 5 minutes at 37° C. and 2 μL calcium ionophore […] (from a 50 mM DMSO stock diluted just prior to the assay in Hanks balanced salt solution (Invitrogen)) to 1.25 mM) was added, solutions mixed and incubated for 30 minutes at 37° C. Samples were centrifuged at 1,200 rpm (−200×g) for 10 minutes at 4° C., plasma removed and a 1:4 dilution assayed for LTB4 concentration using ELISA (Assay Designs). Drug concentrations to achieve 50% inhibition (IC50's) of vehicle LTB4 were determined by nonlinear regression (Graphpad Prism) of % inhibition versus log drug concentration.

| IC50 [nM] | SMILES |
| --- | --- |
| < 300 | CCOC(=O)c1cc2cc(Cn3cc(C(O)(CC)C(F)(F)F)nn3)ccn2c1-c1ccc(OCC)nc1 (stereo not drawn) [Compound 1-56, 3-(6-Ethoxy-pyridin-3-yl)-7-[4-(1-hydroxy-1-trifluoromethyl-propyl)-[1,2,3]triazol-1-ylmethyl]-indolizine-2-carboxylic acid ethyl ester] |
| < 300 | CCOC(=O)c1cc2cc(Cn3cc(C(O)(CC)C(F)(F)F)nn3)ccn2c1-c1cnn(C)c1 (stereo not drawn) [Compound 1-74, 7-[4-(1-Hydroxy-1-trifluoromethyl-propyl)-[1,2,3]triazol-1-ylmethyl]-3-(1-methyl-1H-pyrazol-4-yl)-indolizine-2-carboxylic acid ethyl ester] |
| > 1000 | CCC(O)(c1cn(Cc2ccn3c(-c4ccc(C)nc4)c(C(N)=O)cc3c2)nn1)C(F)(F)F (stereo not drawn) [Compound 1-71, 7-[4-(1-Hydroxy-1-trifluoromethyl-propyl)-[1,2,3]triazol-1-ylmethyl]-3-(6-methyl-pyridin-3-yl)-indolizine-2-carboxylic acid amide] |
| < 300 | CCOC(=O)c1cc2cc(CNc3nnc(C(O)(CC)C(F)(F)F)o3)ccn2c1-c1ccc(F)cc1 (stereo not drawn) [Compound 1-11, 3-(4-Fluoro-phenyl)-7-{[5-(1-hydroxy-1-trifluoromethyl-propyl)-[1,3,4]oxadiazol-2-ylamino]-methyl}-indolizine-2-carboxylic acid ethyl ester] |
| 300 to 1000 | CCNC(=O)c1cc2cc(Cn3cc(C(O)(CC)C(F)(F)F)nn3)ccn2c1-c1ccc(F)cc1 (stereo not drawn) [Compound 1-55, 3-(4-Fluoro-phenyl)-7-[4-(1-hydroxy-1-trifluoromethyl-propyl)-[1,2,3]triazol-1-ylmethyl]-indolizine-2-carboxylic acid ethylamide] |
| 300 to 1000 | CCOC(=O)c1cc2cc(Cn3cc(C(O)(CC)C(F)(F)F)nn3)ccn2c1-c1ccc(=O)n(C)c1 (stereo not drawn) [Compound 1-62, 7-[4-(1-Hydroxy-1-trifluoromethyl-propyl)-[1,2,3]triazol-1-ylmethyl]-3-(1-methyl-6-oxo-1,6-dihydro-pyridin-3-yl)-indolizine-2-carboxylic acid ethyl ester] |
| < 300 | CCC(O)(c1nnc(NCc2ccn3c(-c4ccc(F)cc4)c(C(N)=O)c(Br)c3c2)o1)C(F)(F)F (stereo not drawn) [Compound 1-17, 1-Bromo-3-(4-fluoro-phenyl)-7-{[5-(1-hydroxy-1-trifluoromethyl-propyl)-[1,3,4]oxadiazol-2-ylamino]-methyl}-indolizine-2-carboxylic acid amide] |
| < 300 | CCOC(=O)c1nc2cc(CNc3nnc(C(O)(CC)C(F)(F)F)o3)ccn2c1-c1ccccc1 (stereo not drawn) [Compound 1-12, 7-{[5-(1-Hydroxy-1-trifluoromethyl-propyl)-[1,3,4]oxadiazol-2-ylamino]-methyl}-3-phenyl-imidazo[1,2-a]pyridine-2-carboxylic acid ethyl ester] |
| > 1000 | CCC(O)(c1cn(Cc2ccn3c(-c4ccc(F)cc4)c(CNCCC(=O)O)cc3c2)nn1)C(F)(F)F (stereo not drawn) [Compound 1-40, 3-({3-(4-Fluoro-phenyl)-7-[4-(1-hydroxy-1-trifluoromethyl-propyl)-[1,2,3]triazol-1-ylmethyl]-indolizin-2-ylmethyl}-amino)-propionic acid] |
| 300 to 1000 | CCC(O)(c1cn(Cc2ccn3c(-c4ccc(F)cc4)c(/C=C/C(=O)O)cc3c2)nn1)C(F)(F)F (stereo not drawn) [Compound 1-41, (E)-3-{3-(4-Fluoro-phenyl)-7-[4-(1-hydroxy-1-trifluoromethyl-propyl)-[1,2,3]triazol-1-ylmethyl]-indolizin-2-yl}-acrylic acid] |
| < 300 | CCOC(=O)c1cc2cc(Cn3cc(C(O)(CC)C(F)(F)F)nn3)ccn2c1-c1ccc(C)nc1 (stereo not drawn) [Compound 1-69, 7-[4-(1-Hydroxy-1-trifluoromethyl-propyl)-[1,2,3]triazol-1-ylmethyl]-3-(6-methyl-pyridin-3-yl)-indolizine-2-carboxylic acid ethyl ester] |

The remaining lines, values behind:

| SMILES | IC50 [nM] |
| --- | --- |
| CCC(OC)(c1cn(Cc2ccn3c(-c4ccc(F)cc4)c(COC)cc3c2)nn1)C(F)(F)F (stereo not drawn) [Compound 1-45, 3-(4-Fluoro-phenyl)-2-methoxymethyl-7-[4-(1-methoxy-1-trifluoromethyl-propyl)-[1,2,3]triazol-1-ylmethyl]-indolizine] | < 300 |
| CCC(O)(c1cnc(Sc2ccn3cc(C(=O)O)cc3c2)s1)C(F)(F)F (stereo not drawn) [Compound 1-2, 7-[5-(1-Hydroxy-1-trifluoromethyl-propyl)-thiazol-2-ylsulfanyl]-indolizine-2-carboxylic acid] | > 1000 |
| CCC(O)(c1cn(Cc2ccn3c(-c4cccc(F)c4)c(C(N)=O)cc3c2)nn1)C(F)(F)F (stereo not drawn) [Compound 1-48, 3-(3-Fluoro-phenyl)-7-[4-(1-hydroxy-1-trifluoromethyl-propyl)-[1,2,3]triazol-1-ylmethyl]-indolizine-2-carboxylic acid amide] | < 300 |
| CCC(O)(c1cn(Cc2ccn3c(-c4ccc(C)nc4)c(C#N)cc3c2)nn1)C(F)(F)F (stereo not drawn) [Compound 1-72, 7-[4-(1-Hydroxy-1-trifluoromethyl-propyl)-[1,2,3]triazol-1-ylmethyl]-3-(6-methyl-pyridin-3-yl)-indolizine-2-carbonitrile] | < 300 |
| CCOC(=O)c1c(C(=O)C(F)(F)F)c2cc(Cn3cc(C(CC)(OC(=O)c4ccc([N+](=O)[O-])cc4)C(F)(F)F)nn3)ccn2c1-c1ccc(OC)nc1 (single isomer, unassigned) [Compound 1-84, 3-(6-Methoxy-pyridin-3-yl)-7-{4-[1-(4-nitro-benzoyloxy)-1-trifluoromethyl-propyl]-[1,2,3]triazol-1-ylmethyl}-1-(2,2,2-trifluoro-acetyl)-indolizine-2-carboxylic acid ethyl ester] | 300 to 1000 |
| CCC(O)(c1cn(Cc2ccn3c(-c4cccc(S(C)(=O)=O)c4)c(C#N)cc3c2)nn1)C(F)(F)F (stereo not drawn) [Compound 1-49, 7-[4-(1-Hydroxy-1-trifluoromethyl-propyl)-[1,2,3]triazol-1-ylmethyl]-3-(3-methanesulfonyl-phenyl)-indolizine-2-carbonitrile] | 300 to 1000 |
| CCC(O)(c1cn(Cc2ccn3c(-c4cnc5ccccc5c4)c(C#N)cc3c2)nn1)C(F)(F)F (stereo not drawn) [Compound 1-53, 7-[4-(1-Hydroxy-1-trifluoromethyl-propyl)-[1,2,3]triazol-1-ylmethyl]-3-quinolin-3-yl-indolizine-2-carbonitrile] | < 300 |
| CCC(O)(c1cn(Cc2ccn3c(Cl)c(C#N)cc3c2)nn1)C(F)(F)F (single isomer, unassigned) [Compound 1-88, 3-Chloro-7-[4-(1-hydroxy-1-trifluoromethyl-propyl)-[1,2,3]triazol-1-ylmethyl]-indolizine-2-carbonitrile] | < 300 |
| CCC(O)(c1cn(Cc2ccn3c(-c4ccc(=O)n(C)c4)c(C#N)cc3c2)nn1)C(F)(F)F (stereo not drawn) [Compound 1-70, 7-[4-(1-Hydroxy-1-trifluoromethyl-propyl)-[1,2,3]triazol-1-ylmethyl]-3-(1-methyl-6-oxo-1,6-dihydro-pyridin-3-yl)-indolizine-2-carbonitrile] | > 1000 |
| CCOC(=O)c1cc2cc(Cn3cc(C(O)(CC)C(F)(F)F)nn3)ccn2c1C(C)C (single isomer, unassigned) [Compound 1-77, 7-[4-(1-Hydroxy-1-trifluoromethyl-propyl)-[1,2,3]triazol-1-ylmethyl]-3-isopropyl-indolizine-2-carboxylic acid ethyl ester] | < 300 |
